Entries after “also recorded” stand apart in the source; their conditions may differ.
Tested on: S. cerevisiae wildtype and H2BY40A mutants
Experiment: Yeast spot growth assay on YPD plates with MMS
Assay type: cell-based, Saccharomyces cerevisiae
Settings: in contrast to wild type cells, growth 72 h post-plating
Method: Wt and H2BY40A mutants were serially diluted and spotted on YPD plates in the absence or presence of MMS and growth was assessed 72 h post-plating.
To test whether excess of histones interfere with the ability of cells to repair DNA damage, S. cerevisiae wildtype (Wt) and H2BY40A mutants were exposed to DNA alkylating agent Methylmethane sulphonate (MMS). MMS inhibits DNA replication by methylating adenine or guanine in the DNA to cause base mispairing and stalling of replication forks, until the mutated/alkylated bases are excised out and replaced with the normal bases by the DNA alkyl transferases or the nucleotide repair machinery. […] Rad53 is a functional homologue of human Chk1 and Chk2 in budding yeast. It not only senses DNA replication stress during S phase but also acts as a surveillance machinery to detect excess histones that are not packaged into chromatin and targets them for degradation.

In the case of `COS(C)(=O)=O` [MMS, Methylmethane sulphonate], the “sensitivity of H2BY40A mutants” value is reported as “acute sensitivity; also recorded: marked sensitivity”.
